Test results published in ChEMBL document CHEMBL5104195, “Discovery of Orally Bioavailable SOS1 Inhibitors for Suppressing KRAS-Driven Carcinoma” (J Med Chem, 2022).

Columns and labels:
[1] = Elimination rate constant in ICR mouse at 50 mg/kg, po measured up to 24 hrs by LC-MS/MS analysis; conditions: in vivo
[2] = Half life in ICR mouse at 50 mg/kg, po measured up to 24 hrs by LC-MS/MS analysis; conditions: in vivo
[3] = MRT in ICR mouse at 50 mg/kg, po measured up to 24 hrs by LC-MS/MS analysis; conditions: in vivo
in vivo [4] = conditions: ICR, mouse, po, 50 mg/kg
in vivo [5] = conditions: ICR, mouse, po, 50 mg/kg; remark: listed apart in the source
in vivo [6] = conditions: ICR, mouse, po, 50 mg/kg; remark: listed apart in the source
[7] = biological target: T1, Son of sevenless homolog 1 (Homo sapiens, UniProt Q07889); test: Inhibition of SOS1 in human DLD-1 cells assessed as reduction in ERK phosphorylation incubated for 1 hr by fluorescence assay; format: cell-based
T1 sequence (Q07889 whole entry): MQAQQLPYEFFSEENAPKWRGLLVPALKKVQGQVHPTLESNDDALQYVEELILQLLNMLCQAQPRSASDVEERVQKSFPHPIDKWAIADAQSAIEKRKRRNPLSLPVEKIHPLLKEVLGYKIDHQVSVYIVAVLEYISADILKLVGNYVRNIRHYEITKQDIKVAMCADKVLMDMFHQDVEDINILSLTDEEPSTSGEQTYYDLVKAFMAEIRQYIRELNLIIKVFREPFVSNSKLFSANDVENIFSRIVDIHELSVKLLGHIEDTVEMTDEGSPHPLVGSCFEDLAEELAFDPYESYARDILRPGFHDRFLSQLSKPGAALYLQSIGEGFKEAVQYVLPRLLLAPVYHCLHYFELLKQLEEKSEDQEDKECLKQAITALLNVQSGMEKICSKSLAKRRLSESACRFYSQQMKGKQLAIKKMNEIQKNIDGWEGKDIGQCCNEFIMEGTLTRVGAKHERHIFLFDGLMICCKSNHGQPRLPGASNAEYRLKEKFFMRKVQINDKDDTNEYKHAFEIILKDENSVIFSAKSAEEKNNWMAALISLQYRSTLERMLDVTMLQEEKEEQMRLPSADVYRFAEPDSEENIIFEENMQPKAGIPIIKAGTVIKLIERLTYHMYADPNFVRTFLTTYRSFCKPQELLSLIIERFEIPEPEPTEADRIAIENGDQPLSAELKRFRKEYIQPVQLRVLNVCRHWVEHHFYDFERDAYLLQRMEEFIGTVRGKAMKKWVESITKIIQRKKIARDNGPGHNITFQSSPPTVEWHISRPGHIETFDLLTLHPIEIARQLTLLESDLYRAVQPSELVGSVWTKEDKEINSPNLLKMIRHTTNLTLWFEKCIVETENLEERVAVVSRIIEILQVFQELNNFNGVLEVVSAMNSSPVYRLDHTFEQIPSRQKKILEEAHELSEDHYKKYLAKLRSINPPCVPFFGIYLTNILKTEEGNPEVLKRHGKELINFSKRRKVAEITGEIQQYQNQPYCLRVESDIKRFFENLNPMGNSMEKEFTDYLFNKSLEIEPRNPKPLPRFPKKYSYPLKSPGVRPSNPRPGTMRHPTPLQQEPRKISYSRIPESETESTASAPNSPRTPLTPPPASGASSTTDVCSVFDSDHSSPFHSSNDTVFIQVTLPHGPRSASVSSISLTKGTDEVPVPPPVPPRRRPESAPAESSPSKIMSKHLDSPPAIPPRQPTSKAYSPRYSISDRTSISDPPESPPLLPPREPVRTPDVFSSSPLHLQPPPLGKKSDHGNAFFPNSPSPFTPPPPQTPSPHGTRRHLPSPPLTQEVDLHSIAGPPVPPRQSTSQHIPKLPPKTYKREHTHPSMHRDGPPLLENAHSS

SOS1-KRAS = SOS1-KRAS (Homo sapiens, UniProt Q07889); test: Inhibition of N-terminal His6-tagged human recombinant SOS1(564 to 1049 residues)/human recombinant KRAS G12C mutant incubated for 60 mins by HTRF assay
[8] = Toxicity in BALB/c nude mouse xenografted with human MIA PaCa-21 cells expressing KRAS G12C mutant assessed as animal death at 50 mg/kg, po qd measured on day 21; conditions: in vivo, 504 h
[9] = Toxicity in BALB/c nude mouse xenografted with human MIA PaCa-21 cells expressing KRAS G12C mutant assessed as weight loss at 50 mg/kg, po qd measured on day 21; conditions: in vivo
[10] = Plasma protein binding in rat at 2 uM preincubated for 1 hr by balanced dialysis based LC-MS/MS analysis
[11] = Plasma protein binding in mouse at 2 uM preincubated for 1 hr by balanced dialysis based LC-MS/MS analysis
[12] = Plasma protein binding in dog at 2 uM preincubated for 1 hr by balanced dialysis based LC-MS/MS analysis
[13] = Plasma protein binding in monkey at 2 uM preincubated for 1 hr by balanced dialysis based LC-MS/MS analysis; conditions: rhesus monkey

With `COCCN1CCN2c3cc4c(N[C@H](C)c5cccc(C(F)F)c5F)nc(C)nc4cc3OCC[C@H]2C1` the k el at 24 h [1] was 2.64e-05 s⁻¹, the half-life at 24 h [2] was 7.23 h and the MRT at 24 h [3] was 8.31 h. The Tmax at 24 h (in vivo [4]) was 5.67 h, the Cmax at 24 h (in vivo [5]) was 433 ng/mL and the AUC at 24 h (in vivo [6]) was 5420 ng·h/mL.
`Cc1nc(N[C@H](C)c2cccc(C(F)F)c2F)c2cc3c(cc2n1)OCC[C@H]1CN(C(=O)C2COC2)CCN31` gave a k el at 24 h [1] of 0.000142 s⁻¹, a half-life at 24 h [2] of 1.36 h and an MRT at 24 h [3] of 1.7 h. For the same compound, the Tmax at 24 h (in vivo [4]) was 0.38 h, the Cmax at 24 h (in vivo [5]) was 885 ng/mL and the AUC at 24 h (in vivo [6]) was 1610 ng·h/mL.
`Cc1nc(N[C@H](C)c2cccc(C(F)F)c2F)c2cc3c(cc2n1)OCC[C@H]1CN(C(=O)c2cccnc2)CCN31` gave a k el at 24 h [1] of 0.000135 s⁻¹, a half-life at 24 h [2] of 1.47 h and an MRT at 24 h [3] of 1.78 h. It also gave a Tmax at 24 h (in vivo [4]) of 0.333 h, a Cmax at 24 h (in vivo [5]) of 1580 ng/mL and an AUC at 24 h (in vivo [6]) of 3180 ng·h/mL.
In the case of `Cc1nc(N[C@H](C)c2cccc(C(F)F)c2F)c2cc3c(cc2n1)OCC[C@H]1CN(CC#N)CCN31`, the IC50 [7] is reported as 0.07 µM.
Work on `Cc1nc(N[C@H](C)c2cccc(C(F)F)c2F)c2cc3c(cc2n1)OCC[C@H]1CN(CC2COC2)CCN31` yielded a k el at 24 h [1] of 2.61e-05 s⁻¹, a half-life at 24 h [2] of 7.39 h and an MRT at 24 h [3] of 7.64 h. For the same compound, the Tmax at 24 h (in vivo [4]) was 3 h, the Cmax at 24 h (in vivo [5]) was 645 ng/mL and the AUC at 24 h (in vivo [6]) was 10700 ng·h/mL.
In the case of `Cc1nc(N[C@H](C)c2cccc(C(F)F)c2F)c2cc3c(cc2n1)OC[C@H]1CN(C(=O)C2(C#N)CC2)CCN31`, the IC50 (SOS1-KRAS) is reported as 0.0084 µM and the IC50 [7] is reported as 0.013 µM.
`Cc1nc(N[C@H](C)c2cccc(C(F)F)c2F)c2cc3c(cc2n1)OCC[C@H]1CN(C)CCN31` gave a k el at 24 h [1] of 9.78e-06 s⁻¹, a half-life at 24 h [2] of 20 h and an MRT at 24 h [3] of 9.58 h. For the same compound, the Tmax at 24 h (in vivo [4]) was 3.5 h, the Cmax at 24 h (in vivo [5]) was 191 ng/mL and the AUC at 24 h (in vivo [6]) was 3250 ng·h/mL.
For `Cc1nc(N[C@H](C)c2cccc(C(F)F)c2F)c2cc3c(cc2n1)OCC[C@H]1CN(C(=O)[C@@H]2CCOC2)CCN31`, the k el at 24 h [1] was 8.39e-05 s⁻¹, the half-life at 24 h [2] was 2.29 h and the MRT at 24 h [3] was 2.89 h. For the same compound, the Activity [8] was “Non-Toxic”, the Activity [9] was “Non-Toxic” and the fraction unbound at 1 h, 2 µM [10] was 0.001. For the same compound, the fraction unbound at 1 h, 2 µM [11] was 0.006, the fraction unbound at 1 h, 2 µM [12] was 0.001 and the fraction unbound at 1 h, 2 µM [13] was 0.001. The Tmax at 24 h (in vivo [4]) was 0.417 h, the Cmax at 24 h (in vivo [5]) was 1450 ng/mL and the AUC at 24 h (in vivo [6]) was 7490 ng·h/mL.
`Cc1nc(N[C@H](C)c2cccc(C(F)F)c2F)c2cc3c(cc2n1)OCC[C@H]1CN(c2ccnn2C)CCN31` showed a k el at 24 h [1] of 7.36e-05 s⁻¹, a half-life at 24 h [2] of 2.61 h and an MRT at 24 h [3] of 4.47 h. For the same compound, the Activity [8] was “Non-Toxic”, the Activity [9] was “Non-Toxic” and the fraction unbound at 1 h, 2 µM [10] was 0.107. The fraction unbound at 1 h, 2 µM [11] was 0.079, the fraction unbound at 1 h, 2 µM [12] was 0.01 and the fraction unbound at 1 h, 2 µM [13] was 0.015. For the same compound, the Tmax at 24 h (in vivo [4]) was 0.33 h, the Cmax at 24 h (in vivo [5]) was 4690 ng/mL and the AUC at 24 h (in vivo [6]) was 48800 ng·h/mL.
